Source: patent US20230085307A1, “PYRIDAZINONE COMPOUND AND HERBICIDE” (NISSAN CHEMICAL CORPORATION, priority 2019, published 2023)

Legend:
velvetleaf [1] = test: Test Example 5: herbicidal effect by foliage application, plastic box (Table 20, symbol M); type: in vivo, velvetleaf (Abutilon theophrasti); details: 320 g/ha, evaluated three weeks after application
Outline: (§1)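 Plants were sown into sterilized diluvial soil under about 1.5 cm cover and kept in a greenhouse at 25° C. to 30° C. Fourteen days on, foliage received an even spray of the diluted emulsion. Herbicidal or crop effect was judged three weeks afterwards.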

redroot pigweed [2] = test: Test Example 5: herbicidal effect by foliage application, plastic box (Table 20, symbol N); type: in vivo, redroot pigweed (Amaranthus retroflexus); details: 320 g/ha, evaluated three weeks after application
Outline: as §1

chickweed [3] = test: Test Example 4: herbicidal effect by soil treatment (Table 19, symbol P); type: in vivo, common chickweed (Stellaria media); details: amount of applied herbicide 320 g/ha
Outline: (§2)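 Pre-emergence style soil spray: seeds under ~1.5 cm sterilized diluvial soil received a uniform coat of emulsion diluted to the predetermined herbicide amount. Greenhouse 25–30° C; readout at week three on previously defined criteria.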

blackgrass [4] = test: Test Example 4: herbicidal effect by soil treatment (Table 19, symbol J); type: in vivo, blackgrass (Alopecurus myosuroides); details: amount of applied herbicide 320 g/ha
Outline: as §2

lambsquarters [5] = test: Test Example 5: herbicidal effect by foliage application, plastic box (Table 20, symbol O); type: in vivo, lambsquarters (Chenopodium album); details: 320 g/ha, evaluated three weeks after application
Outline: as §1

barnyard grass [6] = test: Test Example 5: herbicidal effect by foliage application, plastic box (Table 20, symbol H); type: in vivo, barnyard grass (Echinochloa crus-galli); details: 320 g/ha, evaluated three weeks after application
Outline: as §1

blackgrass [7] = test: Test Example 5: herbicidal effect by foliage application, plastic box (Table 20, symbol J); type: in vivo, blackgrass (Alopecurus myosuroides); details: 320 g/ha, evaluated three weeks after application
Outline: as §1

green foxtail [8] = test: Test Example 5: herbicidal effect by foliage application, plastic box (Table 20, symbol G); type: in vivo, green foxtail (Setaria viridis); details: 320 g/ha, evaluated three weeks after application
Outline: as §1

barnyard grass [9] = test: Test Example 4: herbicidal effect by soil treatment (Table 19, symbol H); type: in vivo, barnyard grass (Echinochloa crus-galli); details: amount of applied herbicide 320 g/ha
Outline: as §2

velvetleaf [10] = test: Test Example 4: herbicidal effect by soil treatment (Table 19, symbol M); type: in vivo, velvetleaf (Abutilon theophrasti); details: amount of applied herbicide 320 g/ha
Outline: as §2

Italian ryegrass [11] = test: Test Example 5: herbicidal effect by foliage application, plastic box (Table 20, symbol K); type: in vivo, Italian ryegrass (Lolium multiflorum); details: 320 g/ha, evaluated three weeks after application
Outline: as §1

lambsquarters [12] = test: Test Example 4: herbicidal effect by soil treatment (Table 19, symbol O); type: in vivo, lambsquarters (Chenopodium album); details: amount of applied herbicide 320 g/ha
Outline: as §2

southern crabgrass [13] = test: Test Example 5: herbicidal effect by foliage application, plastic box (Table 20, symbol F); type: in vivo, southern crabgrass (Digitaria ciliaris); details: 320 g/ha, evaluated three weeks after application
Outline: as §1

windgrass [14] = test: Test Example 5: herbicidal effect by foliage application, plastic box (Table 20, symbol L); type: in vivo, windgrass (Apera spica-venti); details: foliage application, 320 g/ha, evaluated three weeks after application
Outline: as §1

windgrass [15] = test: Test Example 4: herbicidal effect by soil treatment (Table 19, symbol L); type: in vivo, windgrass (Apera spica-venti); details: amount of applied herbicide 320 g/ha
Outline: as §2

chickweed [16] = test: Test Example 5: herbicidal effect by foliage application, plastic box (Table 20, symbol P); type: in vivo, common chickweed (Stellaria media); details: 320 g/ha, evaluated three weeks after application
Outline: as §1

persian speedwell [17] = test: Test Example 4: herbicidal effect by soil treatment (Table 19, symbol R); type: in vivo, Persian speedwell (Veronica persica); details: amount of applied herbicide 320 g/ha
Outline: as §2

southern crabgrass [18] = test: Test Example 4: herbicidal effect by soil treatment (Table 19, symbol F); type: in vivo, southern crabgrass (Digitaria ciliaris); details: amount of applied herbicide 320 g/ha
Outline: as §2

Italian ryegrass [19] = test: Test Example 4: herbicidal effect by soil treatment (Table 19, symbol K); type: in vivo, Italian ryegrass (Lolium multiflorum); details: amount of applied herbicide 320 g/ha
Outline: as §2

redroot pigweed [20] = test: Test Example 4: herbicidal effect by soil treatment (Table 19, symbol N); type: in vivo, redroot pigweed (Amaranthus retroflexus); details: amount of applied herbicide 320 g/ha
Outline: as §2

wild oat [21] = test: Test Example 5: herbicidal effect by foliage application, plastic box (Table 20, symbol I); type: in vivo, wild oat (Avena fatua); details: 320 g/ha, evaluated three weeks after application
Outline: as §1

wild oat [22] = test: Test Example 4: herbicidal effect by soil treatment (Table 19, symbol I); type: in vivo, wild oat (Avena fatua); details: amount of applied herbicide 320 g/ha
Outline: as §2

green foxtail [23] = test: Test Example 4: herbicidal effect by soil treatment (Table 19, symbol G); type: in vivo, green foxtail (Setaria viridis); details: amount of applied herbicide 320 g/ha
Outline: as §2

persian speedwell [24] = test: Test Example 5: herbicidal effect by foliage application, plastic box (Table 20, symbol R); type: in vivo, Persian speedwell (Veronica persica); details: 320 g/ha, evaluated three weeks after application
Outline: as §1

rice flat sedge = test: Test Example 3: herbicidal effect by foliage application, Wagner pot (Table 18, symbol E); type: in vivo, rice flat sedge (Cyperus iria); details: 320 g/ha
Outline: (§3)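 Plants were sown in alluvial soil held under 0.1–0.5 cm standing water and grown 14 days in a greenhouse at 25–30 °C. An emulsifiable formulation, water-diluted to the set dose, was then sprayed onto the foliage, and effects were scored three weeks later using previously defined criteria.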

Chinese sprangletop = test: Test Example 3: herbicidal effect by foliage application, Wagner pot (Table 18, symbol D); type: in vivo, chinese sprangletop (Leptochloa chinensis); details: 320 g/ha
Outline: as §3

barnyard grass [25] = test: Test Example 3: herbicidal effect by foliage application, Wagner pot (Table 18, symbol H); type: in vivo, barnyard grass (Echinochloa crus-galli); details: 320 g/ha
Outline: as §3

[26] = foliage application after 14-day growth

## CCCC(=O)Oc1c(C)nn(C)c(=O)c1-c1c(-c2ccc(OC)cc2)sc2ccc(C)cc12 [2-141]
Velvetleaf [1]; foliage application
  herbicidal effect on M: velvetleaf (criteria 0-5): 0 (Herbicidal rate of 5% or less (almost no effect))
Redroot pigweed [2]; foliage application
  herbicidal effect on N: redroot pigweed (criteria 0-5): 0 (Herbicidal rate of 5% or less (almost no effect))
Chickweed [3]
  P: chickweed, herbicidal effect rating: 0 (Herbicidal rate of 5% or less (almost no effect))
Blackgrass [4]
  J: blackgrass, herbicidal effect rating: 0 (Herbicidal rate of 5% or less (almost no effect))
Lambsquarters [5]; foliage application
  herbicidal effect on O: lambsquarters (criteria 0-5): 0 (Herbicidal rate of 5% or less (almost no effect))
Barnyard grass [6]; foliage application
  herbicidal effect on H: barnyard grass (criteria 0-5): 0 (Herbicidal rate of 5% or less (almost no effect))
Blackgrass [7]; foliage application
  herbicidal effect on J: blackgrass (criteria 0-5): 0 (Herbicidal rate of 5% or less (almost no effect))
Green foxtail [8]; foliage application
  herbicidal effect on G: green foxtail (criteria 0-5): 0 (Herbicidal rate of 5% or less (almost no effect))
Barnyard grass [9]
  H: barnyard grass, herbicidal effect rating: 0 (Herbicidal rate of 5% or less (almost no effect))
Velvetleaf [10]
  M: velvetleaf, herbicidal effect rating: 0 (Herbicidal rate of 5% or less (almost no effect))
Italian ryegrass [11]; foliage application
  herbicidal effect on K: Italian ryegrass (criteria 0-5): 0 (Herbicidal rate of 5% or less (almost no effect))
Lambsquarters [12]
  O: lambsquarters, herbicidal effect rating: 0 (Herbicidal rate of 5% or less (almost no effect))
Southern crabgrass [13]; foliage application
  herbicidal effect on F: southern crabgrass (criteria 0-5): 0 (Herbicidal rate of 5% or less (almost no effect))
Windgrass [14]
  herbicidal effect on L: windgrass (criteria 0-5): 0 (Herbicidal rate of 5% or less (almost no effect))
Windgrass [15]
  L: windgrass, herbicidal effect rating: 0 (Herbicidal rate of 5% or less (almost no effect))
Chickweed [16]; foliage application
  herbicidal effect on P: chickweed (criteria 0-5): 5 (Herbicidal rate of 90% or more (almost completely withered))
Persian speedwell [17]
  R: persian speedwell, herbicidal effect rating: 2 (Herbicidal rate of 20% or more and less than 40%)
Southern crabgrass [18]
  F: southern crabgrass, herbicidal effect rating: 0 (Herbicidal rate of 5% or less (almost no effect))
Italian ryegrass [19]
  K: Italian ryegrass, herbicidal effect rating: 0 (Herbicidal rate of 5% or less (almost no effect))
Redroot pigweed [20]
  N: redroot pigweed, herbicidal effect rating: 0 (Herbicidal rate of 5% or less (almost no effect))
Wild oat [21]; foliage application
  herbicidal effect on I: wild oat (criteria 0-5): 0 (Herbicidal rate of 5% or less (almost no effect))
Wild oat [22]
  I: wild oat, herbicidal effect rating: 0 (Herbicidal rate of 5% or less (almost no effect))
Green foxtail [23]
  G: green foxtail, herbicidal effect rating: 0 (Herbicidal rate of 5% or less (almost no effect))
Persian speedwell [24]; foliage application
  herbicidal effect on R: persian speedwell (criteria 0-5): 5 (Herbicidal rate of 90% or more (almost completely withered))

## Cc1nn(C)c(=O)c(-c2c(-c3ccc(Cl)cc3)sc3c(F)cccc23)c1O [4-040]
Velvetleaf [1]; [26]
  herbicidal effect on M: velvetleaf (evaluation grade 0-5): 4 (Herbicidal rate of 70% or more and less than 90%)
Redroot pigweed [2]; [26]
  herbicidal effect on N: redroot pigweed (evaluation grade 0-5): 5 (Herbicidal rate of 90% or more (almost completely withered))
Chickweed [3]
  Herbicidal effect by soil treatment, P: chickweed: 1 (Herbicidal rate of 5% or more and less than 20%)
Blackgrass [4]
  Herbicidal effect by soil treatment, J: blackgrass: 0 (Herbicidal rate of 5% or less (almost no effect))
Lambsquarters [5]; [26]
  herbicidal effect on O: lambsquarters (evaluation grade 0-5): 3 (Herbicidal rate of 40% or more and less than 70%)
Rice flat sedge
  herbicidal effect on rice flat sedge (E): 5 (Herbicidal rate of 90% or more (almost completely withered))
Barnyard grass [6]; [26]
  herbicidal effect on H: barnyard grass (evaluation grade 0-5): 3 (Herbicidal rate of 40% or more and less than 70%)
Chinese sprangletop
  herbicidal effect on Chinese sprangletop (D): 4 (Herbicidal rate of 70% or more and less than 90%)
Blackgrass [7]; [26]
  herbicidal effect on J: blackgrass (evaluation grade 0-5): 3 (Herbicidal rate of 40% or more and less than 70%)
Green foxtail [8]; [26]
  herbicidal effect on G: green foxtail (evaluation grade 0-5): 4 (Herbicidal rate of 70% or more and less than 90%)
Barnyard grass [9]
  Herbicidal effect by soil treatment, H: barnyard grass: 0 (Herbicidal rate of 5% or less (almost no effect))
Barnyard grass [25]
  herbicidal effect on barnyard grass (H): 5 (Herbicidal rate of 90% or more (almost completely withered))
Velvetleaf [10]
  Herbicidal effect by soil treatment, M: velvetleaf: 0 (Herbicidal rate of 5% or less (almost no effect))
Italian ryegrass [11]; [26]
  herbicidal effect on K: Italian ryegrass (evaluation grade 0-5): 4 (Herbicidal rate of 70% or more and less than 90%)
Lambsquarters [12]
  Herbicidal effect by soil treatment, O: lambsquarters: 3 (Herbicidal rate of 40% or more and less than 70%)
Southern crabgrass [13]; [26]
  herbicidal effect on F: southern crabgrass (evaluation grade 0-5): 0 (Herbicidal rate of 5% or less (almost no effect))
Windgrass [15]
  Herbicidal effect by soil treatment, L: windgrass: 0 (Herbicidal rate of 5% or less (almost no effect))
Chickweed [16]; [26]
  herbicidal effect on P: chickweed (evaluation grade 0-5): 5 (Herbicidal rate of 90% or more (almost completely withered))
Persian speedwell [17]
  Herbicidal effect by soil treatment, R: persian speedwell: 4 (Herbicidal rate of 70% or more and less than 90%)
Southern crabgrass [18]
  Herbicidal effect by soil treatment, F: southern crabgrass: 0 (Herbicidal rate of 5% or less (almost no effect))
Italian ryegrass [19]
  Herbicidal effect by soil treatment, K: Italian ryegrass: 2 (Herbicidal rate of 20% or more and less than 40%)
Redroot pigweed [20]
  Herbicidal effect by soil treatment, N: redroot pigweed: 3 (Herbicidal rate of 40% or more and less than 70%)
Wild oat [21]; [26]
  herbicidal effect on I: wild oat (evaluation grade 0-5): 0 (Herbicidal rate of 5% or less (almost no effect))
Wild oat [22]
  Herbicidal effect by soil treatment, I: wild oat: 0 (Herbicidal rate of 5% or less (almost no effect))
Green foxtail [23]
  Herbicidal effect by soil treatment, G: green foxtail: 0 (Herbicidal rate of 5% or less (almost no effect))
Persian speedwell [24]; [26]
  herbicidal effect on R: persian speedwell (evaluation grade 0-5): 5 (Herbicidal rate of 90% or more (almost completely withered))
